The supplement of paper PMC5579334

Experiments:
HSC1 [1] = assay: relative IC50 (inflection point of fitted dose-response curve, CellTiter-Glo viability, 72 h; top asymptote may be below 50% inhibition); higher = less potent
In short: (§1)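 After seeding 750–1000 cells per well of MPNST cell lines or primary human Schwann cells into 384-well plates preprinted with each compound at five concentrations in 10-fold steps, plates were kept 72 h at 37 °C, 5% CO2. Viability was read as CellTiter-Glo ATP luminescence relative to vehicle and positive-control wells, with duplicates averaged where present. The data were fitted with four-parameter logistic models. Drug sensitivity score and relative IC50, censored at the top concentration, derive from the fits, and percent inhibition refers to the top concentration.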

S1507-2 [2] = assay: as above
In short: as §1

S462 = assay: as above
In short: as §1

YST-1 = assay: as above
In short: as §1

HSC2 [3] = assay: as above
In short: as §1

HS-Sch-2 = assay: as above
In short: as §1

STS26T [4] = assay: as above
In short: as §1

ST8814 [5] = assay: as above
In short: as §1

HS-PSS [6] = assay: as above
In short: as §1

S1507-2 [7] = assay: relative IC50 (inflection point of fitted dose-response curve, CellTox-Green cytotoxicity, 72 h; top asymptote may be below 50%); higher = less potent
In short: (§2)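 For 72 h at 37 °C, MPNST cell lines and primary human Schwann cells were exposed in 384-well plates to five 10-fold compound dilutions. CellTox-Green, added before seeding at a final 1:1000 dilution, gave fluorescence from DNA released by disrupted cells. Signals were scaled to vehicle and positive-control wells, cultures failing plate quality control were left out, and four-parameter logistic fits were applied. Relative IC50 and drug sensitivity score were derived from the fits, with IC50 censored at the top concentration.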

HSC2 [8] = assay: as above
In short: as §2

STS26T [9] = assay: as above
In short: as §2

ST8814 [10] = assay: as above
In short: as §2

HS-PSS [11] = assay: as above
In short: as §2

HSC1 [12] = assay: as above
In short: as §2

Row | SMILES | relative IC50 (HSC1 [1]) [nM] | relative IC50 (S1507-2 [2]) [nM] | relative IC50 (S462) [nM] | relative IC50 (YST-1) [nM] | relative IC50 (HSC2 [3]) [nM] | relative IC50 (HS-Sch-2) [nM] | relative IC50 (STS26T [4]) [nM] | relative IC50 (ST8814 [5]) [nM] | relative IC50 (HS-PSS [6]) [nM] | relative IC50 (S1507-2 [7]) [µM] | relative IC50 (HSC2 [8]) [µM] | relative IC50 (STS26T [9]) [nM] | relative IC50 (ST8814 [10]) [nM] | relative IC50 (HS-PSS [11]) [µM] | relative IC50 (HSC1 [12]) [µM]
1 | C[C@H]1C=C2C(=O)O[C@H]3CC[C@@H](C1)[C@@]23O [Galiellalactone] | 5260 | 9350 | 8040 | 9960 | 9860 | 4620 | 7720 | 10100 | 6450 | 15.7 | > 50 | 14600 | > 50000 | > 25 | 
2 | O=C(O)C1(C(=O)O)CCC1.[NH2-].[NH2-].[Pt+2] [Carboplatin aq] | 14500 | 20600 | 17000 |  | 14600 |  | 19500 | 24400 |  | 37.3 | 20.5 | 27300 | 25100 |  | 27.6
3 | CCN(CCO)CCCOc1ccc2c(Nc3cc(CC(=O)Nc4cccc(F)c4)[nH]n3)ncnc2c1 [AZD1152-HQPA] | 22.3 | 107 | 5.43 | 5.7 | 35.2 | > 1000 | 85.6 | 152 |  | > 1 |  | 161 | 206 | > 1 | > 1
4 | Nc1nc(OCc2cc(Br)cs2)c2[nH]cnc2n1 [Lomeguatrib] | > 10000 | > 10000 | > 10000 | > 10000 | > 10000 | > 10000 | > 10000 | > 10000 |  | > 10 | > 10 | > 10000 | > 10000 | > 10 | > 10
5 | COC1=C2C[C@@H](C)C[C@H](OC)[C@H](O)[C@@H](C)/C=C(\C)[C@H](OC(N)=O)[C@@H](OC)/C=C\C=C(/C)C(=O)NC(=CC1=O)C2=O [Geldanamycin] | 363 | 1690 | 454 |  | 338 |  | 780 | 765 |  | 2.65 | 0.211 | 1160 | 1320 |  | 0.204
6 | N#Cc1ccc(C(c2ccc(C#N)cc2)n2cncn2)cc1 [Letrozole] | > 10000 | > 10000 | > 10000 | > 10000 | > 10000 |  | > 10000 | > 10000 |  | > 10 | > 10 | > 10000 | > 10000 | > 10 | > 10
7 | CCN(CC)CCCC(C)Nc1c2ccc(Cl)cc2nc2ccc(OC)cc12 (configuration not stated) [Mepacrine aq] | 1230 | 1070 | 918 |  | 1230 |  | 1320 | 929 |  | 2.2 | 1.17 | 2370 | 2910 |  | 0.956
8 | CC(=O)O[C@]1(C(C)=O)CC[C@H]2[C@@H]3C=C(C)C4=CC(=O)CC[C@]4(C)[C@H]3CC[C@@]21C [Megestrol] | > 10000 | > 10000 | > 10000 |  | > 10000 |  | > 10000 | > 10000 |  | > 10 | > 10 | > 10000 | > 10000 |  | > 10
9 | C=CCc1cccc(/C=N/NC(=O)CN2CCN(Cc3ccccc3)CC2)c1O [PAC-1] | 1890 | 3660 | 3490 | 2430 | 1370 | 1130 | 2530 | 2920 | 2320 | > 10 | > 10 | > 10000 |  | 2.02 | > 10
10 | COc1cc(OC2CCN(C)CC2)ccc1Nc1ncc2c(n1)n(C1CCCC1)c(=O)n2C [AZ 3146] | 3380 | 2690 | 964 | 1480 | 3340 | 1670 | 1250 | 2580 | 1850 | 3.51 |  | 1950 | 2960 | 3.14 | > 10
11 | COc1ccc(-c2ccc3c(N4CCOC[C@@H]4C)nc(N4CCOC[C@@H]4C)nc3n2)cc1CO [AZD8055] | 29.9 | 51.1 | 24.8 | 20.5 | 28 | 83.3 | 69.5 | 138 | 91.7 | > 10 | > 10 | > 10000 |  |  | > 10
12 | COc1cc2c(cc1O)CC[C@@H]1[C@@H]2CC[C@]2(C)[C@@H](O)CC[C@@H]12 [2-methoxyestradiol] | 1170 | 1860 | 747 | 1650 | 1230 | 841 | 922 | 2580 | 3060 | 1.66 | 1.5 | 1020 | 3130 | > 10 | 
13 | C=CC(=O)N1CCC[C@@H](n2nc(-c3ccc(Oc4ccccc4)cc3)c3c(N)ncnc32)C1 [Ibrutinib] | > 1000 | > 1000 | > 1000 | > 1000 | > 1000 | > 1000 | > 1000 | > 1000 |  | > 1 | > 1 | > 1000 | > 1000 | > 1 | > 1
